Experimental data: patent US20210068659A1, “Use of Octafluorocyclobutane for Lung Imaging” (Lakehead University, priority 2019, published 2021)

Assays:
[1] = Specific Absorption Rate (SAR) / scan safety inferred from the longer spin-lattice relaxation time; conditions: summary statement
Source text: While the spin-lattice relaxation time is 60% longer for OFCB compared to PFP, which limits the potential number of signal averages, the longer spin-lattice relaxation means that there are a smaller number of radio pulses with OFCB. This means that the Specific Absorption Rate (SAR) is lower for OFCB-O2 scans. […] The lower SAR value of OFCB scans means that ^19F OFCB lung MRI is safer for patients than MRI scans acquired using other inert fluorinated gases.

[2] = Measured relaxation parameters (19F MRI relaxation times) of pure gases and gas-O2 mixtures in vitro; format: physicochemical; conditions: for T2′ / T1: in vitro, pure gas or gas-O2 breathing mixture; for T1: spin-lattice relaxation time
Source text: The relaxation times for OFCB-O2 mixture In Vivo should be measured experimentally. We measured the relaxation times for pure OFCB and OFCB-O2 mixture in vitro.
While we were not first who measured the relaxation times for pure OFCB, to our knowledge, we are the first who characterized the OFCB-O2 breathing mixture.

Compound	safer compared to PFP [1]	spin-lattice relaxation time longer compared to PFP ([2]; OFCB compared to PFP)	T2′ [2]	T1 [2]
FC1(F)C(F)(F)C(F)(F)C1(F)F [OFCB, octafluorocyclobutane]	60%	60%	10.5 ± 1.8 ms	27.9 ± 0.8 ms
FC(F)(F)C(F)(F)C(F)(F)F [PFP, perfluoropropane, reference compound]	–	–	6.26 ± 0.27 ms	18.6 ± 0.4 ms
